Measured values reported in patent publication US20080280862A1, “Methods, compositions, and kits for the treatment of pain” (priority 2007, published 2008).

Legend:
[1] = tested on: formalin-induced pain model in rats; assay: Formalin pain model, nociceptive behaviors; type: in vivo, Sprague-Dawley rats; settings: Experiment One, amitriptyline
Method: The formalin model is a fast, reliable model used to assess potential analgesics ability to block inflammatory pain. The analgesic effects of test article combinations on pain generation are assayed using the formalin-induced pain model in rats. Adult male Sprague-Dawley rats are administered intraperitoneally study drugs (vehicle, TCA, steroid or TCA/Steroid test article combinations) once daily for 2 days (day −2 and day −1) and 30 minutes prior to the formalin injection day on day 0 (time=0). […] To elicit a pain response, dilute formalin (2% in saline) is injected under the skin of the plantar surface of the right hindpaw. The animal is placed in an observation chamber. The pain response is a characteristic biphasic response pattern of nociceptive behaviors (lifting, licking, and biting of the injected paw). Two distinct periods of nociceptive behaviors/activity are observed and recorded: an early phase (phase I) lasting the first 5-10 min and a late phase (phase II) lasting 20-40 min after the injection of formalin. One hour of data is collected (time spent displaying pain behavior) by a blinded observer using a stopwatch. Results are expressed as the number of pain behaviors per 5 minute periods (Table 8 and Table 9).

[2] = tested on: carrageenan-induced pain model in rats; assay: Carrageenan pain model, mechanical allodynia by Von Frey filaments; type: in vivo, Sprague-Dawley rats
Method: The carrageenan model is a fast, reliable model used to assess the ability of analgesics to block inflammatory pain. The analgesic effects of test article combinations on pain generation are assayed using the carrageenan-induced pain model in rats. Adult male Sprague-Dawley rats are administered study drugs intraperitoneally (vehicle, tricyclic compound (TCA), steroid or TCA/Steroid test article combinations) once daily for 2 days (day −2 and day −1) and 30 minutes prior to the carrageenan injection on day 0 (time=0). For the carrageenan injection, animals are lightly anesthetized and 0.1 ml of 2% carrageenan is injected into the plantar surface of the right hind paw. The positive control diclofenac at a dose of 25 mg/kg is administered intraperitoneally immediately before the carrageenan injection. Paw volumes (right and left) are measured using a plathysmometer before drug administration on day −2 and serve as a baseline measurement. The paw volumes are measured again two hours post carrageenan injection. The degree of mechanical allodynia is measured by a blinded observer using Von Frey filaments applied to the plantar surface of the hind paws in an increasing numerical order. Each filament increases the force applied on the paw. The filaments are applied until animal paw withdrawal is achieved. This procedure is carried out before drug administration (day −2), on day −1 and on day 0 at time=0, 20, 40, 60, 80 and 120 minutes post-carrageenan. The force (expressed in grams) required for paw withdrawal after carrageenan injection is subtracted from the force required for paw withdrawal before carrageenan injection. Results are expressed as mean change from baseline across five timepoints post carrageenan injection in Table 4.
For a synergy calculation, experimental data from the carrageenan study are fitted to a median-effect model and used to calculate the parameters' median-effect dose (Dm), slope (m), correlation coefficient (r), combination index (CI) and dose-reduction index (DRI). In addition, the probability of pain inhibition occurring after single-component (nortriptyline) versus the combination drug treatments are calculated from the negative change from baseline data using a Bayesian sensitivity analysis. The likelihood of pain inhibition is characterized for nortriptyline administered alone (1 mg/kg or 3 mg/kg) versus the fixed-dose combination treatments [prednisolone (0.3 mg/kg):nortriptyline (1 mg/kg) or prednisolone (1 mg/kg):nortriptyline (3 mg/kg)] each evaluated at 60 and 80 minutes for analgesic effect.
In another example, the effects of test article combinations on pain inhibition were assayed using the carrageenan model in rodents. Desipramine was tested alone and in combination at 0.3, 1, and 3 mg/kg and prednisolone was tested similarly at 0.3, 1 and 3 mg/kg IP.

Question: `CN(C)CCC=C1c2ccccc2CCc2ccccc21` [Amitriptyline] was tested. Which “Mean number of behaviors per 5 minute block” value ([1]; 1 mg/kg, 5 minutes) did it give?
Answer: 233.0 ± 10.0

Question: And the “Mean number of behaviors per 5 minute block” value ([1]; 1 mg/kg, 10 minutes)?
Answer: 52.0 ± 23

Question: What about the “Mean number of behaviors per 5 minute block” value ([1]; 1 mg/kg, 15 minutes) of the same molecule?
Answer: 84.0 ± 28.0

Question: And the “Mean number of behaviors per 5 minute block” value ([1]; 1 mg/kg, 20 minutes)?
Answer: 49.0 ± 39.0

Question: And the “Mean number of behaviors per 5 minute block” value ([1]; 1 mg/kg, 25 minutes)?
Answer: 228.0 ± 31.0

Question: What about the “Mean number of behaviors per 5 minute block” value ([1]; 1 mg/kg, 30 minutes) of the same molecule?
Answer: 244.0 ± 19.0

Question: What about the “Mean number of behaviors per 5 minute block” value ([1]; 1 mg/kg, 35 minutes) of the same molecule?
Answer: 240.0 ± 17.0

Question: What about the “Mean number of behaviors per 5 minute block” value ([1]; 1 mg/kg, 40 minutes) of the same molecule?
Answer: 214.0 ± 27.0

Question: And the “Mean number of behaviors per 5 minute block” value ([1]; 1 mg/kg, 45 minutes)?
Answer: 167.0 ± 31.0

Question: What about the “Mean number of behaviors per 5 minute block” value ([1]; 1 mg/kg, 50 minutes) of the same molecule?
Answer: 63.0 ± 23.0

Question: And the “Mean number of behaviors per 5 minute block” value ([1]; 1 mg/kg, 55 minutes)?
Answer: 39.0 ± 21.0

Question: And the “Mean number of behaviors per 5 minute block” value ([1]; 1 mg/kg, 60 minutes)?
Answer: 28.0 ± 23.0

Question: What about the “Mean number of behaviors per 5 minute block” value ([1]; 3 mg/kg, 5 minutes) of the same molecule?
Answer: 206.0 ± 16.2

Question: What about the “Mean number of behaviors per 5 minute block” value ([1]; 3 mg/kg, 10 minutes) of the same molecule?
Answer: 59.0 ± 23.2

Question: And the “Mean number of behaviors per 5 minute block” value ([1]; 3 mg/kg, 15 minutes)?
Answer: 64.0 ± 21.6

Question: What about the “Mean number of behaviors per 5 minute block” value ([1]; 3 mg/kg, 20 minutes) of the same molecule?
Answer: 166.0 ± 36.7

Question: What about the “Mean number of behaviors per 5 minute block” value ([1]; 3 mg/kg, 25 minutes) of the same molecule?
Answer: 229.0 ± 29.4

Question: And the “Mean number of behaviors per 5 minute block” value ([1]; 3 mg/kg, 30 minutes)?
Answer: 242.0 ± 27.6

Question: What about the “Mean number of behaviors per 5 minute block” value ([1]; 3 mg/kg, 35 minutes) of the same molecule?
Answer: 210.0 ± 35.9

Question: What about the “Mean number of behaviors per 5 minute block” value ([1]; 3 mg/kg, 40 minutes) of the same molecule?
Answer: 242.0 ± 30.3

Question: What about the “Mean number of behaviors per 5 minute block” value ([1]; 3 mg/kg, 45 minutes) of the same molecule?
Answer: 174.0 ± 36.0

Question: And the “Mean number of behaviors per 5 minute block” value ([1]; 3 mg/kg, 50 minutes)?
Answer: 119.0 ± 45.0

Question: What about the “Mean number of behaviors per 5 minute block” value ([1]; 3 mg/kg, 55 minutes) of the same molecule?
Answer: 73.0 ± 36.6

Question: And the “Mean number of behaviors per 5 minute block” value ([1]; 3 mg/kg, 60 minutes)?
Answer: 47.0 ± 26.9

Question: And the “Mean number of behaviors per 5 minute block” value ([1]; 10 mg/kg, 5 minutes)?
Answer: 217.0 ± 18.1

Question: What about the “Mean number of behaviors per 5 minute block” value ([1]; 10 mg/kg, 10 minutes) of the same molecule?
Answer: 16.0 ± 8.8

Question: What about the “Mean number of behaviors per 5 minute block” value ([1]; 10 mg/kg, 15 minutes) of the same molecule?
Answer: 45.0 ± 24.1

Question: And the “Mean number of behaviors per 5 minute block” value ([1]; 10 mg/kg, 20 minutes)?
Answer: 84.0 ± 39.0

Question: What about the “Mean number of behaviors per 5 minute block” value ([1]; 10 mg/kg, 25 minutes) of the same molecule?
Answer: 128.0 ± 41.0

Question: What about the “Mean number of behaviors per 5 minute block” value ([1]; 10 mg/kg, 30 minutes) of the same molecule?
Answer: 151.0 ± 40.9

Question: What about the “Mean number of behaviors per 5 minute block” value ([1]; 10 mg/kg, 35 minutes) of the same molecule?
Answer: 152.0 ± 41.1

Question: And the “Mean number of behaviors per 5 minute block” value ([1]; 10 mg/kg, 40 minutes)?
Answer: 138.0 ± 39.4

Question: And the “Mean number of behaviors per 5 minute block” value ([1]; 10 mg/kg, 45 minutes)?
Answer: 67.0 ± 26.7

Question: And the “Mean number of behaviors per 5 minute block” value ([1]; 10 mg/kg, 50 minutes)?
Answer: 70.0 ± 27.8

Question: What about the “Mean number of behaviors per 5 minute block” value ([1]; 10 mg/kg, 55 minutes) of the same molecule?
Answer: 42.0 ± 13.8

Question: What about the “Mean number of behaviors per 5 minute block” value ([1]; 10 mg/kg, 60 minutes) of the same molecule?
Answer: 45.0 ± 25.2

Question: What about the “Mean number of behaviors per 5 minute block” value ([1]; 20 mg/kg, 5 minutes) of the same molecule?
Answer: 168.0 ± 24.3

Question: And the “Mean number of behaviors per 5 minute block” value ([1]; 20 mg/kg, 10 minutes)?
Answer: 41.0 ± 22.4

Question: And the “Mean number of behaviors per 5 minute block” value ([1]; 20 mg/kg, 15 minutes)?
Answer: 1.0 ± 0.9

Question: And the “Mean number of behaviors per 5 minute block” value ([1]; 20 mg/kg, 20 minutes)?
Answer: 13.0 ± 10.2

Question: And the “Mean number of behaviors per 5 minute block” value ([1]; 20 mg/kg, 25 minutes)?
Answer: 32.0 ± 13.7

Question: And the “Mean number of behaviors per 5 minute block” value ([1]; 20 mg/kg, 30 minutes)?
Answer: 81.0 ± 34.3

Question: What about the “Mean number of behaviors per 5 minute block” value ([1]; 20 mg/kg, 35 minutes) of the same molecule?
Answer: 93.0 ± 41.3

Question: And the “Mean number of behaviors per 5 minute block” value ([1]; 20 mg/kg, 40 minutes)?
Answer: 85.0 ± 37.2

Question: And the “Mean number of behaviors per 5 minute block” value ([1]; 20 mg/kg, 45 minutes)?
Answer: 99.0 ± 34.0

Question: What about the “Mean number of behaviors per 5 minute block” value ([1]; 20 mg/kg, 50 minutes) of the same molecule?
Answer: 82.0 ± 33.8

Question: What about the “Mean number of behaviors per 5 minute block” value ([1]; 20 mg/kg, 55 minutes) of the same molecule?
Answer: 66.0 ± 36.8

Question: What about the “Mean number of behaviors per 5 minute block” value ([1]; 20 mg/kg, 60 minutes) of the same molecule?
Answer: 59.0 ± 31.1

Question: What about the “Mean change from baseline ± SEM” value ([2]; Experiment One, 1 mg/kg, 20 minutes) of the same molecule?
Answer: 3.40 ± 3.40 g

Question: And the “Mean change from baseline ± SEM” value ([2]; Experiment One, 1 mg/kg, 40 minutes)?
Answer: -49.80 ± 5.19 g

Question: What about the “Mean change from baseline ± SEM” value ([2]; Experiment One, 1 mg/kg, 60 minutes) of the same molecule?
Answer: -113.80 ± 7.21 g

Question: What about the “Mean change from baseline ± SEM” value ([2]; Experiment One, 1 mg/kg, 80 minutes) of the same molecule?
Answer: -177.80 ± 10.44 g

Question: What about the “Mean change from baseline ± SEM” value ([2]; Experiment One, 1 mg/kg, 120 minutes) of the same molecule?
Answer: -231.00 ± 12.33 g

Question: And the “Mean change from baseline ± SEM” value ([2]; Experiment One, 3 mg/kg, 20 minutes)?
Answer: 11.40 ± 5.82 g

Question: And the “Mean change from baseline ± SEM” value ([2]; Experiment One, 3 mg/kg, 40 minutes)?
Answer: -56.60 ± 9.09 g

Question: And the “Mean change from baseline ± SEM” value ([2]; Experiment One, 3 mg/kg, 60 minutes)?
Answer: -120.60 ± 11.72 g

Question: And the “Mean change from baseline ± SEM” value ([2]; Experiment One, 3 mg/kg, 80 minutes)?
Answer: -173.80 ± 9.90 g

Question: What about the “Mean change from baseline ± SEM” value ([2]; Experiment One, 3 mg/kg, 120 minutes) of the same molecule?
Answer: -192.10 ± 10.67 g

Question: And the “Mean change from baseline ± SEM” value ([2]; Experiment One, 10 mg/kg, 20 minutes)?
Answer: 11.30 ± 5.83 g

Question: What about the “Mean change from baseline ± SEM” value ([2]; Experiment One, 10 mg/kg, 40 minutes) of the same molecule?
Answer: -41.90 ± 9.86 g

Question: And the “Mean change from baseline ± SEM” value ([2]; Experiment One, 10 mg/kg, 60 minutes)?
Answer: -99.10 ± 11.33 g

Question: And the “Mean change from baseline ± SEM” value ([2]; Experiment One, 10 mg/kg, 80 minutes)?
Answer: -148.90 ± 12.63 g

Question: What about the “Mean change from baseline ± SEM” value ([2]; Experiment One, 10 mg/kg, 120 minutes) of the same molecule?
Answer: -177.70 ± 16.01 g

Question: What about the “Mean change from baseline ± SEM” value ([2]; Experiment One, 20 mg/kg, 20 minutes) of the same molecule?
Answer: 19.90 ± 6.68 g

Question: And the “Mean change from baseline ± SEM” value ([2]; Experiment One, 20 mg/kg, 40 minutes)?
Answer: -33.30 ± 7.80 g

Question: What about the “Mean change from baseline ± SEM” value ([2]; Experiment One, 20 mg/kg, 60 minutes) of the same molecule?
Answer: -93.30 ± 7.80 g

Question: What about the “Mean change from baseline ± SEM” value ([2]; Experiment One, 20 mg/kg, 80 minutes) of the same molecule?
Answer: -138.60 ± 6.03 g

Question: And the “Mean change from baseline ± SEM” value ([2]; Experiment Two, first set of rows, 3 mg/kg, 20 minutes)?
Answer: -2.20 ± 3.62 g

Question: What about the “Mean change from baseline ± SEM” value ([2]; Experiment Two, first set of rows, 3 mg/kg, 40 minutes) of the same molecule?
Answer: -6.19 ± 5.21 g

Question: What about the “Mean change from baseline ± SEM” value ([2]; Experiment Two, first set of rows, 3 mg/kg, 60 minutes) of the same molecule?
Answer: -1.60 ± 3.83 g

Question: And the “Mean change from baseline ± SEM” value ([2]; Experiment Two, first set of rows, 3 mg/kg, 80 minutes)?
Answer: 15.70 ± 5.20 g

Question: What about the “Mean change from baseline ± SEM” value ([2]; Experiment Two, first set of rows, 3 mg/kg, 120 minutes) of the same molecule?
Answer: 26.61 ± 4.90 g
